Data set [1] deals with S. aureus (ATCC12600). The format is cell-based, Staphylococcus aureus. The conditions noted are these: S. aureus ATCC12600. As for the experimental part:
(§1) The MIC of arginine-based peptides was assessed using the microbroth dilution approach. Our in vitro screening included a panel of Gram-negative bacteria, Escherichia coli (ATCC 25922 and enterohaemorrhagic O157:H7) and Pseudomonas aeruginosa (PA01 and the drug-resistant strain NCTC 13437), and Gram-positive bacteria (Staphylococcus aureus ATCC 12600). Five-millilitre overnight cultures in Lysogeny broth, prepared from single isolated colonies, were diluted to 5×10^6 c.f.u. ml^−1 mid-log phase in Mueller–Hinton (MH) broth. Next, peptide concentrations (0 to 1 mM) were serially diluted twofold in 96-well plates and incubated overnight at 37 °C with the tested bacterial strains. In each case, the MIC was determined as the lowest peptide concentration at which no detectable bacterial growth was observed, employing an absorbance-based assay using a Tecan Spark® multimode plate reader. Subsequently, 10 µl aliquots from each peptide dilution were transferred to MH agar (1.5%) plates to determine the minimum bactericidal concentration (MBC) which was assessed by establishing at which concentration no visible growth of bacteria (assessed via colony formation) on the plate was observed.

Data set [2] has as its system S. aureus. The data set is described as follows: Intracellular ROS, DCFH-DA. The conditions noted are these: peptides at MIC, 1/2× MIC, 1/4× MIC, 4 h, 37 °C. The class given is cell-based, Staphylococcus aureus. As for the experimental part: (§2) Total reactive oxygen species (ROS) was measured using an oxidation-sensitive fluorescent dye, 2′,7′-dichlorodihydrofluorescein diacetate (DCFH-DA). For this assay, E. coli and S. aureus cultures were adjusted to an OD600 of 0.3 in MH broth and exposed to peptides at MIC, 1/2× MIC and 1/4× MIC, or to positive control (5 mM H2O2) for 4 h at 37 °C. Cells were centrifuged at 4,000 r.p.m. for 10 min at 4 °C and resuspended in PBS containing 10 µM DCFH-DA. The suspension was incubated under the same conditions for 30 min. Finally, cells were washed twice with PBS, and 150 µl aliquots were transferred to 96-well plates. Oxidized DCF products were detected using a Tecan Spark® microplate reader with excitation at 485 nm and emission at 530 nm. Additionally, 10 µl of E. coli cells incubated with D-R4F4 at MIC, 1/2×MIC and 1/4×MIC was collected for imaging using an All-in-One Fluorescence Microscope (Keyence, Japan).

Data set [3] can be described thus: Stability in human serum by LC-MS. The class given is in vitro ADME. To be noted: human serum (20% and 50%), 24 h, 37 °C; read-out LC-MS (ESI). As for the experimental part:
The antimicrobial activity and structural stability of arginine-rich peptides were evaluated in the presence of human serum (20% and 50 %) and 5 µM Sequencing Grade Modified Trypsin (SGMT, Promega). Briefly, fresh human blood was collected in EDTA tubes and allowed to clot at room temperature for 1 h. Serum was then collected following centrifugation at 2,000 r.p.m. for 10 min at 4 °C. Peptides were incubated with 20%, 50% human serum and 5 µM SGMT in 50 mM Tris-HCl buffer (1 mM CaCl₂, pH 7.6) for 24 h at 37 °C. After the incubation period, the solutions were further incubated with E. coli (ATCC 25922 and O157:H7), P. aeruginosa (PA01, NCTC13437) and S. aureus (ATCC12600), and the MIC was assessed as described in the ‘Antibacterial assessment’ section. Additionally, the samples were analysed using electrospray ionization MS to monitor structural changes based on the molecular weight of the peptides.

Data set [4] deals with E. coli (O157:H7). The format is cell-based, Escherichia coli. As for the experimental part: as §1
The test system of data set [5] is E. coli. As to the kind of experiment: Intracellular ROS, DCFH-DA. The class given is cell-based, Escherichia coli. The conditions noted are these: peptides at MIC, 1/2× MIC, 1/4× MIC, 4 h, 37 °C. As for the experimental part: as §2
Data set [6] relates to S. aureus ATCC 12600. As to the kind of experiment: Membrane integrity, PI uptake. The conditions noted are these: S. aureus ATCC 12600, 5 µg ml−1 PI, 1 h. The format is cell-based, Staphylococcus aureus. As for the experimental part: Propidium iodide (PI) uptake was used to assess the permeabilization of the bacterial membrane upon incubation with peptides. E. coli and S. aureus cells, adjusted to an OD600 of 0.5, were placed into a 96-well plate containing 5 mM HEPES buffer (pH 7.4, supplemented with 5 mM glucose) and incubated with 5 µg ml^−1 PI for 15 min. Afterwards, different peptide concentrations were added, and PI uptake was rapidly measured every 10 min over a 1 h period using a Tecan Spark® microplate reader (λex=515 nm, λem=620 nm).

Setting [7] is: 10 µl aliquots plated on MH agar, no visible colonies.
Setting [8] is: MH broth, 5×10^6 cells, 24 h, 37 °C, absorbance 600 nm, triplicate.

Values after ≈ are worked out from the molar mass of the structure shown. Residues, ends and D or L forms follow the SMILES beside them.

With `N=C(N)NCCC[C@@H]1NC(=O)[C@H](CCCNC(=N)N)NC(=O)[C@H](CCCNC(=N)N)NC(=O)[C@H](Cc2ccccc2)NC(=O)[C@H](Cc2ccccc2)NC(=O)[C@H](Cc2ccccc2)NC(=O)[C@H](Cc2ccccc2)NC(=O)[C@H](CCCNC(=N)N)NC1=O` [CP-R4F4] (cyclo(RRRRFFFF)), the results for the minimum bactericidal concentration (MBC) in data set [1] (setting [7]) and in data set [4] (setting [7]) were 125 µM (≈ 152 µg/mL) and 62.5 µM (≈ 75.8 µg/mL), respectively. Also, the minimal inhibitory concentration (MIC) in data set [1] (setting [8]) is 62.5 µM (≈ 75.8 µg/mL); in data set [4] (setting [8]), 31.25 µM (≈ 37.9 µg/mL). Moreover, the “Intracellular ROS levels” value in data set [2] and in data set [5] was “highest modulation of ROS levels” in each case. In addition, in data set [3], the “Stability with serum proteases (LC chromatogram and mass spectrum)” value is “appeared at the same retention time in both the absence and presence of proteases”. Further, the “PI uptake, membrane integrity” value in data set [6] was “membrane-disruptive activity”.

By MBC is commonly meant the smallest concentration meeting the test's criterion for killing. By MIC is commonly meant the lowest concentration found to suppress growth.

(Values after PMC12873548, “D-amino acid substitution and cyclization enhance the stability and antimicrobial activity of arginine-rich peptides” (Microbiology, 2026).)
